From ChEMBL document CHEMBL3526031, “Mechanistic studies on the absorption and disposition of scutellarin in humans: selective OATP2B1-mediated hepatic uptake is a likely key determinant for its unique pharmacokinetic characteristics” (Drug Metab Dispos, 2012)

Legend:
[1] = molecular target: T1, ATP-binding cassette sub-family C member 2 (Homo sapiens, UniProt Q92887); experiment: Inhibition of human MRP2-mediated estradiol-17beta-D-glucuronide formation using inside-out membrane vesicles by LC-MS/MS analysis
[2] = molecular target: ATP-binding cassette sub-family C member 3 (Homo sapiens, UniProt O15438); experiment: Drug uptake assessed as human MRP3-mediated drug transport using inside-out membrane vesicles by measuring +ATP/-ATP ratio by LC-MS/MS analysis; assay type: ADME
[3] = Ratio of Vmax to Km for drug metabolism in rat intestinal microsomes assessed as formation of scutellarein-6,7-diglucuronide after 7 mins by HPLC/UV analysis; assay type: ADME, Intestine, Microsome
[4] = Ratio of Vmax to Km for drug metabolism in human intestinal microsomes assessed as formation of scutellarein-6,7-diglucuronide after 7 mins by HPLC/UV analysis; assay type: ADME, Intestine, Microsome
[5] = molecular target: T2, Broad substrate specificity ATP-binding cassette transporter ABCG2 (Homo sapiens, UniProt Q9UNQ0); experiment: Drug uptake assessed as human BCRP-mediated drug transport using inside-out membrane vesicles by measuring +ATP/-ATP ratio by LC-MS/MS analysis; assay type: ADME
T2 sequence (Q9UNQ0 whole entry): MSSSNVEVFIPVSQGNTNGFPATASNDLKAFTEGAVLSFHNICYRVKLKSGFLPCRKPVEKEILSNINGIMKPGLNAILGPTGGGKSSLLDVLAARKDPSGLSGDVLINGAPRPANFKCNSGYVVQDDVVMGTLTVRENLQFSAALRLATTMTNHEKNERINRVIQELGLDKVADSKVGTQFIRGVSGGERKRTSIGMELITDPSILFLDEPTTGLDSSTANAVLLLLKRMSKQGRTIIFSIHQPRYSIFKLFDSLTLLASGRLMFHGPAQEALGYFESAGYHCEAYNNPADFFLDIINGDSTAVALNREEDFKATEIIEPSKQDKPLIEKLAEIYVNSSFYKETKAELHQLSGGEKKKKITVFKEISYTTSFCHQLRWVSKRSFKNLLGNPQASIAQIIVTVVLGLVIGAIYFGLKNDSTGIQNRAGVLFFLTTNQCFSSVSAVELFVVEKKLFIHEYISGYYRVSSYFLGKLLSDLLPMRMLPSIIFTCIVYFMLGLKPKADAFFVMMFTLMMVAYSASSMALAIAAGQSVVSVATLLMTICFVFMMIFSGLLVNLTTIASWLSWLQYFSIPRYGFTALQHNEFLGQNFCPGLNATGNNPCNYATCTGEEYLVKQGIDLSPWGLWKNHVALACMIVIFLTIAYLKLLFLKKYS

[6] = Drug metabolism in human intestinal microsomes assessed as formation of scutellarein-6,7-diglucuronide after 7 mins by HPLC/UV analysis; assay type: ADME, Intestine, Microsome; settings: for Km / Vmax: human, microsomes, 7 min
[7] = Drug metabolism in rat intestinal microsomes assessed as formation of scutellarein-6,7-diglucuronide after 7 mins by HPLC/UV analysis; assay type: ADME, Intestine, Microsome; settings: for Km / Vmax: rat, microsomes, 7 min
[8] = molecular target: T3, UDP-glucuronosyltransferase 1A10 (Homo sapiens, UniProt Q9HAW8); experiment: Drug metabolism assessed as human recombinant UGT1A10-mediated formation of scutellarein-6,7-diglucuronide after 25 mins by HPLC/UV analysis; assay type: ADME
T3 sequence (Q9HAW8 whole entry): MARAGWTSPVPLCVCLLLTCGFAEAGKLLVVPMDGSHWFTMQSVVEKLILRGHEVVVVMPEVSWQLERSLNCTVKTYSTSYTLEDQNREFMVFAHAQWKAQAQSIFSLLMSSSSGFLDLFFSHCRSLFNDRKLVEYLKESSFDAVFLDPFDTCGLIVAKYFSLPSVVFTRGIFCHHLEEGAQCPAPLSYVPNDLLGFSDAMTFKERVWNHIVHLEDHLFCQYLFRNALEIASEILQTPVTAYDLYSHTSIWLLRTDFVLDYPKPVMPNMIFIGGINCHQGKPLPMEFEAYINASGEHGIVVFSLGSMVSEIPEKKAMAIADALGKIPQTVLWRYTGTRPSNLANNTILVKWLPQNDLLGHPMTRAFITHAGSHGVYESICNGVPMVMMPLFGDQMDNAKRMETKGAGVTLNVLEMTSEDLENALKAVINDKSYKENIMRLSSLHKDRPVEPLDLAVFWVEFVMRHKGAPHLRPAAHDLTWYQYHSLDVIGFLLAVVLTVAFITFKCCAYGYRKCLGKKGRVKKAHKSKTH

[9] = molecular target: T2, Broad substrate specificity ATP-binding cassette transporter ABCG2; experiment: Inhibition of human BCRP-mediated methotrexate transport using inside-out membrane vesicles by LC-MS/MS analysis; assay type: ADME
[10] = test system: Liver microsome; experiment: Ratio of Vmax to Km for drug metabolism in rat liver microsomes assessed as formation of scutellarein-6,7-diglucuronide after 7 mins by HPLC/UV analysis; assay type: ADME
[11] = molecular target: Multidrug resistance-associated protein 1 (Homo sapiens, UniProt P33527); experiment: Inhibition of human MRP1-mediated estradiol-17beta-D-glucuronide formation using inside-out membrane vesicles by LC-MS/MS analysis
[12] = molecular target: T1, ATP-binding cassette sub-family C member 2; experiment: Drug uptake assessed as human MRP2-mediated drug transport using inside-out membrane vesicles by measuring +ATP/-ATP ratio by LC-MS/MS analysis; assay type: ADME
[13] = molecular target: ATP-dependent translocase ABCB1 (Homo sapiens, UniProt P08183); experiment: Inhibition of human MDR1-mediated N-methyl quinine formation using inside-out membrane vesicles by LC-MS/MS analysis; assay type: ADME
[14] = test system: Liver microsome; experiment: Ratio of Vmax to Km for drug metabolism in human liver microsomes assessed as formation of scutellarein-6,7-diglucuronide after 7 mins by HPLC/UV analysis; assay type: ADME
[15] = molecular target: Liver microsome; experiment: Drug metabolism in rat liver microsomes assessed as formation of scutellarein-6,7-diglucuronide after 7 mins by HPLC/UV analysis; assay type: ADME; settings: for Km / Vmax: rat, microsomes, 7 min
[16] = molecular target: Liver microsome; experiment: Drug metabolism in human liver microsomes assessed as formation of scutellarein-6,7-diglucuronide after 7 mins by HPLC/UV analysis; assay type: ADME; settings: for Km / Vmax: human, microsomes, 7 min

T1 sequence (Q92887 whole entry): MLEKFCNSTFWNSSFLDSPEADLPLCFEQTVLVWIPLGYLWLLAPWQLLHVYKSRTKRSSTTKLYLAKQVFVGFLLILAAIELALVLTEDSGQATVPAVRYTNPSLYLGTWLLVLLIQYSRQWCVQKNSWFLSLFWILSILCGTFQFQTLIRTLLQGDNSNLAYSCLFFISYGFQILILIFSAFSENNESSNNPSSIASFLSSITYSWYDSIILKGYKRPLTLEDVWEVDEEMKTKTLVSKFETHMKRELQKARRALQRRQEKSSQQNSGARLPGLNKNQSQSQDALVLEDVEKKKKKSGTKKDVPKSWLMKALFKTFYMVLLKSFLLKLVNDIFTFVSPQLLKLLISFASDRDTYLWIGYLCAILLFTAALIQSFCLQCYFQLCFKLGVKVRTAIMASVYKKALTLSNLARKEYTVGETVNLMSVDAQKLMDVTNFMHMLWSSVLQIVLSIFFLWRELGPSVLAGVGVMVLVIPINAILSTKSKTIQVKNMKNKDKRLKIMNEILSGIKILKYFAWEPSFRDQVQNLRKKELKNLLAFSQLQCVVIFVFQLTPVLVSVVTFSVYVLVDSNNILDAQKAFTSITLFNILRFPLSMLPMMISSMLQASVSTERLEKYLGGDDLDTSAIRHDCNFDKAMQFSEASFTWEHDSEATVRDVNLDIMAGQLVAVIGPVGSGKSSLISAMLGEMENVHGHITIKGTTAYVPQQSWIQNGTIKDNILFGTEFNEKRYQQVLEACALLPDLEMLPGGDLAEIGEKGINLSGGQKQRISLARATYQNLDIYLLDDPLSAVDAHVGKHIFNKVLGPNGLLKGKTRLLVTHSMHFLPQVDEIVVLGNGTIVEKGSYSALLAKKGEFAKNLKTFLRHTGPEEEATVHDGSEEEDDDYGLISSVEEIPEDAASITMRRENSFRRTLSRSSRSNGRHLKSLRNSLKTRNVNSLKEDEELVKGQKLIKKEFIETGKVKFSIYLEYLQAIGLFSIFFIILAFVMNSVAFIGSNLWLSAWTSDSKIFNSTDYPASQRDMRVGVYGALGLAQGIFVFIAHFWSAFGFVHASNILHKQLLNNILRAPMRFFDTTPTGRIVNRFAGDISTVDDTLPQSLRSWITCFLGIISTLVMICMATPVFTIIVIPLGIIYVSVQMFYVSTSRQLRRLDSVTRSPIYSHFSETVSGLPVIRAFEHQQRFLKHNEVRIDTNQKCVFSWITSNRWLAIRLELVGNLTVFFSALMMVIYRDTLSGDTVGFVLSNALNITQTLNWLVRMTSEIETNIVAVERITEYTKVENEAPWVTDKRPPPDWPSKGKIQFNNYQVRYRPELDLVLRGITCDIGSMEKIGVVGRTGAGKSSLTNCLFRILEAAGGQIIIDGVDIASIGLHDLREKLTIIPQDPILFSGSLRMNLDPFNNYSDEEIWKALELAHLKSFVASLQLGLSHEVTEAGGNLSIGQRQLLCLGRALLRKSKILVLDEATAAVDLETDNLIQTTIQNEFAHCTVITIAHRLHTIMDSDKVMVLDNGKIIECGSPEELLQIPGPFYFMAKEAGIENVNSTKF
Chain of ATP-dependent translocase ABCB1 (P08183 whole entry): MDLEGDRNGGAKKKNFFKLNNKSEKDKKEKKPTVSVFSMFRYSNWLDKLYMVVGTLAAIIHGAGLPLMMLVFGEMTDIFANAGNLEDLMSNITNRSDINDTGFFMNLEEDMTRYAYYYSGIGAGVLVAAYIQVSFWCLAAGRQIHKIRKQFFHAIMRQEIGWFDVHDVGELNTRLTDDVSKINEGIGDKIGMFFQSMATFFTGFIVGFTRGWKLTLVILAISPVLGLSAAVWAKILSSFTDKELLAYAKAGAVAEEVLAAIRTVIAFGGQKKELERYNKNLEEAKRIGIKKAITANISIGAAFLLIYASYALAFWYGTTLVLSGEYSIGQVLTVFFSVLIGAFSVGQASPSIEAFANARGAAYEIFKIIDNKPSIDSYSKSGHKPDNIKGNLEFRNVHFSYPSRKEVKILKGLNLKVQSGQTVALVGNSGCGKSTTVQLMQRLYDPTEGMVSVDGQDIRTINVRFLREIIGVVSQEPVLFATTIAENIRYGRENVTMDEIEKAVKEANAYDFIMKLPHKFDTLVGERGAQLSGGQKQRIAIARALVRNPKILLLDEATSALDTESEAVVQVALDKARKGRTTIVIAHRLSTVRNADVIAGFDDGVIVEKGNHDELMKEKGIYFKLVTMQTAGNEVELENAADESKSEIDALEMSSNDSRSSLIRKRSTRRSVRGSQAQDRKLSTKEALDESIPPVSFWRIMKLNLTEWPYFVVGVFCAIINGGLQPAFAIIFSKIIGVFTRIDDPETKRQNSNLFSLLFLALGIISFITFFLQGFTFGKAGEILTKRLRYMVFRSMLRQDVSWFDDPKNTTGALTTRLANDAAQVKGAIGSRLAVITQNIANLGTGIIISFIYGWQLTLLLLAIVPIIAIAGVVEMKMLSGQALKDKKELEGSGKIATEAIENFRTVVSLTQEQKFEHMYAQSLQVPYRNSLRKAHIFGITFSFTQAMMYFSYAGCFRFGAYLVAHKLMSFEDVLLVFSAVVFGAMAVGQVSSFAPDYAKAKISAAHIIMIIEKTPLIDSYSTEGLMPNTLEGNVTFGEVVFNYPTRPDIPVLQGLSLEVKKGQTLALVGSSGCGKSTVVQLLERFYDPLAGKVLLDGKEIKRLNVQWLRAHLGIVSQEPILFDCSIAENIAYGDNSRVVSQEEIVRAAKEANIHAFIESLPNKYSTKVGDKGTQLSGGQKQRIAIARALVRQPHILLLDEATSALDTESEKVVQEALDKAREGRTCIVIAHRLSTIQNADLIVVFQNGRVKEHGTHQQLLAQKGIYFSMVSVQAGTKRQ
Chain of ATP-binding cassette sub-family C member 3 (O15438 whole entry): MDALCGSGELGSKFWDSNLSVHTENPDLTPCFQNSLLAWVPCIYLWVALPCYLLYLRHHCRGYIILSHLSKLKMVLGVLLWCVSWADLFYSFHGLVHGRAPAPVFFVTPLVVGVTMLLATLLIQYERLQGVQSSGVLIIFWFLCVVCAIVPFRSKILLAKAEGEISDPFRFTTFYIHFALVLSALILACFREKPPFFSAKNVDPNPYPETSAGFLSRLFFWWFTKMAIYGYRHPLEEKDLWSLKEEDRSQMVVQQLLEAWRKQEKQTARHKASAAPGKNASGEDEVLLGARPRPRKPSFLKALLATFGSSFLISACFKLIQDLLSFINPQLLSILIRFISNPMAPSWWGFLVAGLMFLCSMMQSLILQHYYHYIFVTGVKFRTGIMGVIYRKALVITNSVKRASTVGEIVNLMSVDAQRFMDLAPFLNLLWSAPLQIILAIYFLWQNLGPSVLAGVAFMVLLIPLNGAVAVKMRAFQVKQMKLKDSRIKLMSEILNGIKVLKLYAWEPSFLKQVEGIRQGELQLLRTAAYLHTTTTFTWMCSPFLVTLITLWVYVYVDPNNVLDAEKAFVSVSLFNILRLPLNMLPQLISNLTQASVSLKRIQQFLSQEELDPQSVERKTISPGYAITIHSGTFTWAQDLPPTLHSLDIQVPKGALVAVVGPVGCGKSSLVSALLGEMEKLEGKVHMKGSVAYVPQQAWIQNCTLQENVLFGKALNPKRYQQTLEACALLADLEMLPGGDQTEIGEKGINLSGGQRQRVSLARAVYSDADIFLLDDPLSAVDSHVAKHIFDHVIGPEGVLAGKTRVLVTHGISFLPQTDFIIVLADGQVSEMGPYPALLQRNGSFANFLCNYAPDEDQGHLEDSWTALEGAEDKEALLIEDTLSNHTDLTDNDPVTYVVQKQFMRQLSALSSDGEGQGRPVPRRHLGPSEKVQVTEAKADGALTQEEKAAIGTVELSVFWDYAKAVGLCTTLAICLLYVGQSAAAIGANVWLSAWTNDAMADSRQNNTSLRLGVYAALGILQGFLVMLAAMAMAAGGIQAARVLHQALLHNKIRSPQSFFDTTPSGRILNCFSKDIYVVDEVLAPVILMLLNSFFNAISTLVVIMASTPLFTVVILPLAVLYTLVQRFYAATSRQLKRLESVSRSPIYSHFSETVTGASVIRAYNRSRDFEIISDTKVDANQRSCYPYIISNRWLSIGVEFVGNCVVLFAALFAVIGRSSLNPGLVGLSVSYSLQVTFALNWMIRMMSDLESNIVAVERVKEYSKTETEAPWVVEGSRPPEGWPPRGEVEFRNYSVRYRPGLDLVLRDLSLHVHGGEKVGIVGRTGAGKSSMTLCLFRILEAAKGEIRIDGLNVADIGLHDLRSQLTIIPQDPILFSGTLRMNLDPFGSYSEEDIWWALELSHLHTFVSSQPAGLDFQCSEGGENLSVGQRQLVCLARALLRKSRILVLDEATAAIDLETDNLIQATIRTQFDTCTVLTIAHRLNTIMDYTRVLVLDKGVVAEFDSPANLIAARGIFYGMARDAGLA

Row | Structure (SMILES) | IC50 [1] | Ratio [2] | Vmax/Km [3] | Vmax/Km [4] | Ratio [5] | Ki [6] | Km [6] | Vmax [6] | Ki [7] | Km [7] | Vmax [7] | Ki [8] | IC50 [9] | Vmax/Km [10] | inhibition (INH) [11] | Ratio [12] | inhibition (INH) [13] | Vmax/Km [14] | Ki [15] | Km [15] | further results
1 | O=C(O)[C@H]1O[C@@H](Oc2c(O)cc3oc(-c4ccc(O)cc4)cc(=O)c3c2O)[C@H](O)[C@@H](O)[C@@H]1O | 50 µM | 1.61 | 30 µL/min/mg | 110 µL/min/mg | 57.5 | 11.8 µM | 156 µM | 17.1 nmol/min/mg | 79.2 µM | 41.1 µM | 1.23 nmol/min/mg | 242 µM | 20 µM | 91.3 µL/min/mg | Active | 3.07 | Active | 127 µL/min/mg | 78.3 µM | 21.2 µM | Vmax ([8]; human, recombinant enzyme, 25 min): 0.221 nmol/min/mg; Vmax [15]: 1.94 nmol/min/mg; Ki [16]: 24 µM; Km [16]: 123 µM; Vmax [16]: 15.6 nmol/min/mg
2 | O=C(O)[C@H]1O[C@@H](Oc2cc3oc(-c4ccc(O)cc4)cc(=O)c3c(O)c2O)[C@H](O)[C@@H](O)[C@@H]1O [SCUTELLARIN] | 75 µM | 1.61 | 18.9 µL/min/mg | 18.5 µL/min/mg | 57.5 | 59.5 µM | 643 µM | 11.9 nmol/min/mg | 79 µM | 349 µM | 6.6 nmol/min/mg | 208 µM | 10 µM | 204 µL/min/mg | Active | 3.07 | Active | 11.8 µL/min/mg | 302 µM | 15.2 µM | Vmax [15]: 3.1 nmol/min/mg; Ki [16]: 133 µM; Km [16]: 62.4 µM; Vmax [16]: 0.736 nmol/min/mg
